{"source": "ChEMBL document CHEMBL1201862", "about": "“PubChem BioAssay data set” (2004)", "assay_in_all_cases": "NCI anticancer screen, dose series, 48 h", "key": {"M19-MEL": {"test_system": "M19-MEL"}, "XF498": {"test_system": "XF498"}, "DMS-273": {"test_system": "DMS-273"}, "LXFL 529": {"test_system": "LXFL 529"}, "DMS-114": {"test_system": "DMS-114"}, "DLD-1": {"test_system": "DLD-1"}, "HOP-18": {"test_system": "HOP-18"}, "KM-20L2": {"test_system": "KM-20L2"}, "RXF 631": {"test_system": "RXF 631"}}, "note": "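Protocol summary: plate cells (96-well), add compound at 5 concentrations, incubate 48 h, interpolate endpoints linearly. GI50 marks 50% less growth.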 Calls of active or inactive are those of the source. Cut-off read from the data, not from the text of the source: active = GI50 up to about 1.1 µM and inactive = higher. Numbered stars: 1 amine (or outer) side, 2 acyl side, 3 side chain; on linkers, the order of the positions; unused ones are H or OH. Square brackets hold non-standard residues; d marks the D form. Peptide text beside a SMILES is read from it. X55 = CC[C@H](C)[C@H](OC(=O)[C@@H](C)[C@@H](CC)N[*:1])C(=O)[*:2]; X31 = C[C@H](N[*:1])C(=O)C(C)(C)C(=O)[*:2]; NMeY = CN[C@@H](Cc1ccc(O)cc1)C(=O)O; NMeL = CN[C@@H](CC(C)C)C(=O)O; NMeV = CN[C@H](C(=O)O)C(C)C", "data": [{"smiles": "CCN(CC)c1ccc(C(=O)c2ccccc2C(=O)O)c(O)c1", "values": [{"measurement": "GI50", "setting": "M19-MEL", "result": "> 100 µM (inactive)"}, {"measurement": "GI50", "setting": "XF498", "result": "> 100 µM (inactive)"}, {"measurement": "GI50", "setting": "DMS-273", "result": "> 100 µM (inactive)"}, {"measurement": "GI50", "setting": "LXFL 529", "result": "> 100 µM (inactive)"}, {"measurement": "GI50", "setting": "DMS-114", "result": "> 100 µM (inactive)"}]}, {"smiles": "CCCCOC(=O)CNC(=O)OCCCCC#CC#CCCCCOC(=O)NCC(=O)OCCCC", "values": [{"measurement": "GI50", "setting": "M19-MEL", "result": "> 100 µM (inactive)"}, {"measurement": "GI50", "setting": "DLD-1", "result": "> 100 µM (inactive)"}, {"measurement": "GI50", "setting": "XF498", "result": "> 100 µM (inactive)"}, {"measurement": "GI50", "setting": "DMS-273", "result": "> 100 µM (inactive)"}, {"measurement": "GI50", "setting": "LXFL 529", "result": "> 100 µM (inactive)"}, {"measurement": "GI50", "setting": "DMS-114", "result": "> 100 µM (inactive)"}, {"measurement": "GI50", "setting": "HOP-18", "result": "69.8 µM (inactive)"}, {"measurement": "GI50", "setting": "KM-20L2", "result": "> 100 µM (inactive)"}]}, {"smiles": "CCOP(=O)(OCC)OC1C=CC2CCC1C2", "note": "(configuration not stated)", "values": [{"measurement": "GI50", "setting": "RXF 631", "result": "> 100 µM (inactive)"}, {"measurement": "GI50", "setting": "DLD-1", "result": "> 100 µM (inactive)"}, {"measurement": "GI50", "setting": "XF498", "result": "> 100 µM (inactive)"}, {"measurement": "GI50", "setting": "DMS-273", "result": "18.6 µM (inactive)"}, {"measurement": "GI50", "setting": "LXFL 529", "result": "> 100 µM (inactive)"}, {"measurement": "GI50", "setting": "DMS-114", "result": "87.9 µM (inactive)"}, {"measurement": "GI50", "setting": "HOP-18", "result": "> 100 µM (inactive)"}, {"measurement": "GI50", "setting": "KM-20L2", "result": "> 100 µM (inactive)"}]}, {"smiles": "Nc1nc(Cl)cc(NCCCCCCNc2cc(Cl)nc(N)n2)n1", "values": [{"measurement": "GI50", "setting": "RXF 631", "result": "> 100 µM (inactive)"}, {"measurement": "GI50", "setting": "M19-MEL", "result": "> 100 µM (inactive)"}, {"measurement": "GI50", "setting": "DLD-1", "result": "> 100 µM (inactive)"}, {"measurement": "GI50", "setting": "XF498", "result": "30.6 µM (inactive)"}, {"measurement": "GI50", "setting": "DMS-273", "result": "> 100 µM (inactive)"}, {"measurement": "GI50", "setting": "LXFL 529", "result": "32.7 µM (inactive)"}, {"measurement": "GI50", "setting": "HOP-18", "result": "> 100 µM (inactive)"}, {"measurement": "GI50", "setting": "KM-20L2", "result": "> 100 µM (inactive)"}]}, {"smiles": "O=C(OC(=O)n1ccc2ccccc21)n1ccc2ccccc21", "values": [{"measurement": "GI50", "setting": "M19-MEL", "result": "> 100 µM (inactive)"}, {"measurement": "GI50", "setting": "DLD-1", "result": "> 100 µM (inactive)"}, {"measurement": "GI50", "setting": "XF498", "result": "> 100 µM (inactive)"}, {"measurement": "GI50", "setting": "DMS-273", "result": "> 100 µM (inactive)"}, {"measurement": "GI50", "setting": "DMS-114", "result": "> 100 µM (inactive)"}, {"measurement": "GI50", "setting": "HOP-18", "result": "> 100 µM (inactive)"}, {"measurement": "GI50", "setting": "KM-20L2", "result": "> 100 µM (inactive)"}]}, {"smiles": "COc1ccc(C2CCC(Cl)(OC)CC2C=O)cc1", "note": "(configuration not stated)", "values": [{"measurement": "GI50", "setting": "M19-MEL", "result": "32.1 µM (inactive)"}, {"measurement": "GI50", "setting": "DLD-1", "result": "91.4 µM (inactive)"}, {"measurement": "GI50", "setting": "DMS-273", "result": "53.7 µM (inactive)"}, {"measurement": "GI50", "setting": "LXFL 529", "result": "> 100 µM (inactive)"}, {"measurement": "GI50", "setting": "DMS-114", "result": "27.5 µM (inactive)"}, {"measurement": "GI50", "setting": "HOP-18", "result": "68.9 µM (inactive)"}, {"measurement": "GI50", "setting": "KM-20L2", "result": "67.1 µM (inactive)"}]}, {"smiles": "CC[C@H](C)[C@@H]1OC(=O)[C@@H](C)[C@@H](CC)NC(=O)[C@H](C)NC(=O)C(C)(C)C(=O)[C@H](C)NC(=O)[C@H](Cc2ccc(OC)cc2)N(C)C(=O)[C@H](C(C)C)N(C)C(=O)CNC(=O)[C@H](CC(C)C)N(C)C(=O)CNC1=O", "note": "[DOLASTATIN 11] (cyclo(A[X55]G[NMeL]G[NMeV][NMeY](Me)[X31]))", "values": [{"measurement": "GI50", "setting": "M19-MEL", "result": "0.344 µM (active)"}, {"measurement": "GI50", "setting": "DLD-1", "result": "< 0.0361 µM (active)"}, {"measurement": "GI50", "setting": "XF498", "result": "0.0248 µM (active)"}, {"measurement": "GI50", "setting": "DMS-273", "result": "0.01 µM (active)"}, {"measurement": "GI50", "setting": "LXFL 529", "result": "< 0.0166 µM (active)"}, {"measurement": "GI50", "setting": "DMS-114", "result": "< 0.0203 µM (active)"}, {"measurement": "GI50", "setting": "HOP-18", "result": "< 0.0118 µM (active)"}, {"measurement": "GI50", "setting": "KM-20L2", "result": "< 0.0197 µM (active)"}]}, {"smiles": "S=C(Nc1ccccc1)N1N=C2c3ccccc3CC[C@H]2[C@@H]1c1ccccc1", "values": [{"measurement": "GI50", "setting": "M19-MEL", "result": "1.83 µM (inactive)"}, {"measurement": "GI50", "setting": "DLD-1", "result": "9.42 µM (inactive)"}, {"measurement": "GI50", "setting": "XF498", "result": "> 100 µM (inactive)"}, {"measurement": "GI50", "setting": "LXFL 529", "result": "5.52 µM (inactive)"}, {"measurement": "GI50", "setting": "DMS-114", "result": "2.29 µM (inactive)"}, {"measurement": "GI50", "setting": "HOP-18", "result": "6.21 µM (inactive)"}, {"measurement": "GI50", "setting": "KM-20L2", "result": "3.21 µM (inactive)"}]}, {"smiles": "CN(C)C(CN)CC1=C(CC(CN)N(C)C)CCC1", "note": "(configuration not stated)", "values": [{"measurement": "GI50", "setting": "M19-MEL", "result": "> 100 µM (inactive)"}, {"measurement": "GI50", "setting": "DLD-1", "result": "> 100 µM (inactive)"}, {"measurement": "GI50", "setting": "XF498", "result": "> 100 µM (inactive)"}, {"measurement": "GI50", "setting": "DMS-273", "result": "> 100 µM (inactive)"}, {"measurement": "GI50", "setting": "DMS-114", "result": "> 100 µM (inactive)"}, {"measurement": "GI50", "setting": "HOP-18", "result": "> 100 µM (inactive)"}, {"measurement": "GI50", "setting": "KM-20L2", "result": "> 100 µM (inactive)"}]}, {"smiles": "O=C1C=CC(=CC=C2C=CN(CCCCCCCCCCC(=O)NCCCCCCCCCCCC(=O)O)C=C2)C=C1", "values": [{"measurement": "GI50", "setting": "RXF 631", "result": "> 100 µM (inactive)"}, {"measurement": "GI50", "setting": "M19-MEL", "result": "> 100 µM (inactive)"}, {"measurement": "GI50", "setting": "DLD-1", "result": "> 100 µM (inactive)"}, {"measurement": "GI50", "setting": "XF498", "result": "> 100 µM (inactive)"}, {"measurement": "GI50", "setting": "DMS-273", "result": "> 100 µM (inactive)"}, {"measurement": "GI50", "setting": "LXFL 529", "result": "> 100 µM (inactive)"}, {"measurement": "GI50", "setting": "DMS-114", "result": "> 100 µM (inactive)"}, {"measurement": "GI50", "setting": "KM-20L2", "result": "> 100 µM (inactive)"}]}, {"smiles": "Cc1cc2c(c3c1c1ccccc1n3C)C(=O)c1ccccc1C2=O", "values": [{"measurement": "GI50", "setting": "RXF 631", "result": "> 100 µM (inactive)"}, {"measurement": "GI50", "setting": "M19-MEL", "result": "> 100 µM (inactive)"}, {"measurement": "GI50", "setting": "DLD-1", "result": "> 100 µM (inactive)"}, {"measurement": "GI50", "setting": "XF498", "result": "60.1 µM (inactive)"}, {"measurement": "GI50", "setting": "DMS-273", "result": "> 100 µM (inactive)"}, {"measurement": "GI50", "setting": "LXFL 529", "result": "> 100 µM (inactive)"}, {"measurement": "GI50", "setting": "DMS-114", "result": "> 100 µM (inactive)"}, {"measurement": "GI50", "setting": "KM-20L2", "result": "> 100 µM (inactive)"}]}, {"smiles": "CCCCCCCCCCCCCS(=O)(=O)O", "values": [{"measurement": "GI50", "setting": "RXF 631", "result": "> 100 µM (inactive)"}, {"measurement": "GI50", "setting": "M19-MEL", "result": "> 100 µM (inactive)"}, {"measurement": "GI50", "setting": "DLD-1", "result": "> 100 µM (inactive)"}, {"measurement": "GI50", "setting": "XF498", "result": "> 100 µM (inactive)"}, {"measurement": "GI50", "setting": "LXFL 529", "result": "> 100 µM (inactive)"}, {"measurement": "GI50", "setting": "DMS-114", "result": "> 100 µM (inactive)"}, {"measurement": "GI50", "setting": "HOP-18", "result": "3.08 µM (inactive)"}, {"measurement": "GI50", "setting": "KM-20L2", "result": "> 100 µM (inactive)"}]}, {"smiles": "COc1cc2c(cc1OC)C(Cc1c3ccccc3cc3ccccc13)N(C)CC2", "note": "(configuration not stated)", "values": [{"measurement": "GI50", "setting": "M19-MEL", "result": "21.3 µM (inactive)"}, {"measurement": "GI50", "setting": "DLD-1", "result": "32.1 µM (inactive)"}, {"measurement": "GI50", "setting": "XF498", "result": "18.4 µM (inactive)"}, {"measurement": "GI50", "setting": "DMS-273", "result": "26 µM (inactive)"}, {"measurement": "GI50", "setting": "HOP-18", "result": "16.5 µM (inactive)"}, {"measurement": "GI50", "setting": "KM-20L2", "result": "15.2 µM (inactive)"}]}, {"smiles": "C#Cc1cc(CN(CC(=O)OC(C)(C)C)CC(=O)OC(C)(C)C)nc(CN(CC(=O)OC(C)(C)C)CC(=O)OC(C)(C)C)c1", "values": [{"measurement": "GI50", "setting": "RXF 631", "result": "11.9 µM (inactive)"}, {"measurement": "GI50", "setting": "M19-MEL", "result": "6.4 µM (inactive)"}, {"measurement": "GI50", "setting": "XF498", "result": "11.6 µM (inactive)"}, {"measurement": "GI50", "setting": "DMS-273", "result": "5.89 µM (inactive)"}, {"measurement": "GI50", "setting": "LXFL 529", "result": "3.46 µM (inactive)"}, {"measurement": "GI50", "setting": "DMS-114", "result": "3.26 µM (inactive)"}, {"measurement": "GI50", "setting": "KM-20L2", "result": "5.43 µM (inactive)"}]}]}
